Data on 5 compounds can be found in patent US11020367B2, “Method for preparing medicine with dicaffeoylquinic acid for treating gout” (Huazhong Agricultural University, priority 2019, dated 2021).

Each structure is given as a SMILES string. Marks after values point to notes of the source that are not given here.

For test [1], the target named is XOD (xanthine oxidase) (Homo sapiens, UniProt P47989). Put plainly: Inhibition of XOD enzyme activity (absorbance at 295 nm, xanthine substrate). Particulars: XOD 0.02 U/mL, xanthine 1 mmol/L, 37° C.; read-out: IC50 in inhibiting XOD. The format is biochemical. On the procedure: Forty μL of xanthine solution (1 mmol/L) was added with a spray gun to measure absorbance every 20 s for 15 times.
Sequence of XOD (xanthine oxidase) (P47989 whole entry, species assumed): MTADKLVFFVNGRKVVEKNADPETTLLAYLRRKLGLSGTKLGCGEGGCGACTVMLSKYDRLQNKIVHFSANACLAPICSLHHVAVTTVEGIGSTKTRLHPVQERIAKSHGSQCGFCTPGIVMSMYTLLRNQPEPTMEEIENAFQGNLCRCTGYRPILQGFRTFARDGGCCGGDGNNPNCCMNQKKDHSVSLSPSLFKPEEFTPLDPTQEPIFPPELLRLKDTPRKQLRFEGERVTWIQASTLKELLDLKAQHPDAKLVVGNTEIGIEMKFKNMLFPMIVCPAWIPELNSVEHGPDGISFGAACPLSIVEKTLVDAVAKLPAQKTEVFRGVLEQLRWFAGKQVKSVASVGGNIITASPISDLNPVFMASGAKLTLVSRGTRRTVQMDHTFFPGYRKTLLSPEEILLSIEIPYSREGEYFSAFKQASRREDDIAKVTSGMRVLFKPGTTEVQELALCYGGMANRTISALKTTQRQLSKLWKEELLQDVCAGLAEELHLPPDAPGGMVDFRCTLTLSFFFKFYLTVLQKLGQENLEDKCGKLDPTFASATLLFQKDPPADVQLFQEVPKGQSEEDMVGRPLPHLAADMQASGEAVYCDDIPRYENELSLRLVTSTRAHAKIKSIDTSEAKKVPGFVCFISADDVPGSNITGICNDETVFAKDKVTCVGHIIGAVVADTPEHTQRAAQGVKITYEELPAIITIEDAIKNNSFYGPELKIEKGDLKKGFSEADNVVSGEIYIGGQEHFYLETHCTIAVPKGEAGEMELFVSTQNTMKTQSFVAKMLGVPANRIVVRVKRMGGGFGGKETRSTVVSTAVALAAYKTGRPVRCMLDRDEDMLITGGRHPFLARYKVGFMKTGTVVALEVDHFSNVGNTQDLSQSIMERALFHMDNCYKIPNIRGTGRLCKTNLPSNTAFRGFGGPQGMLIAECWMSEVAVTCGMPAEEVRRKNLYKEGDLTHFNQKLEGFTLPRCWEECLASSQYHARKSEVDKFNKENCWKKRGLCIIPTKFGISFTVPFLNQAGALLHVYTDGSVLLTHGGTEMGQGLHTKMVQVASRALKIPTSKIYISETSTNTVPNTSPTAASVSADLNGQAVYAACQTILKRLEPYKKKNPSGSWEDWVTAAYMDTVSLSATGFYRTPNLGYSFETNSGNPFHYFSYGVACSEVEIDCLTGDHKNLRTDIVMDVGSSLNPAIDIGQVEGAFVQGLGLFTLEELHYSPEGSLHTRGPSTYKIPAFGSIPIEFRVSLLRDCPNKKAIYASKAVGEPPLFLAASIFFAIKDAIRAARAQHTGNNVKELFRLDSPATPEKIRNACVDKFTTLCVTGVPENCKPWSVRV

Test [2] relates to THP-1 cells. Put plainly: IL-1β secretion in THP-1 cells stimulated by lipopolysaccharide and sodium urate (gout inflammation model, ELISA). The format is cell-based. Particulars: 100 μmol/L compound pre-incubated 12 h, then lipopolysaccharide 1 μg/mL 2 h and sodium urate 200 μg/mL 4 h; PMA-differentiated THP-1; model group 8747.09 ± 975.97, control group 214.83 ± 11.92. On the procedure:
THP-1 suspension cells were inoculated into a 24-well plate. When the density reached 80%, a phorbol ester (PMA) solution with a final concentration of 100 ng/mL was added. After 12 hours of PMA treatment, THP-1 cells differentiated into adherent macrophages. Culture medium was aspirated before washing the cells with PBS, completely replacing the culture medium to culture for 12 h before carrying out a dosing treatment. One hundred μmol/L of the above identified monomer compounds were pre-incubated for 12 h, then lipopolysaccharide with a final concentration of 1 μg/mL was added and acted for 2 h, and finally a sodium urate solution with a final concentration of 200 μg/mL was added and acted for 4 h. […] The model group was pre-incubated without drugs, and cells were stimulated with lipopolysaccharide and sodium urate. Finally, the cell supernatant was collected, centrifuged, and IL-1β content in the supernatant was measured by using an ELISA kit.
For orientation: An ELISA detects its analyte on a solid surface through an enzyme-linked reagent.

Turning to `O=C(C=Cc1ccc(O)c(O)c1)OC1C(O)CC(OC(=O)C=Cc2ccc(O)c(O)c2)(C(=O)O)CC1O` (stereo not shown) [1,4-diCQA, 1,4-dicaffeoylquinic acid], the concentration for half-maximal inhibition (IC50) (usually the midpoint of a concentration-inhibition curve) in test [1] is 7.36 ± 0.63 µM. The “IL-1β in cell supernatant” value in test [2] is on record as 4647.67 ± 607.03^bc pg/mL.
Regarding `O=C(C=Cc1ccc(O)c(O)c1)OC1CC(OC(=O)C=Cc2ccc(O)c(O)c2)(C(=O)O)CC(O)C1O` (stereo not shown) [1,5-diCQA, 1,5-dicaffeoylquinic acid], the IC50 in test [1] amounted to 122 ± 2.56 µM. For the same compound, the “IL-1β in cell supernatant” value in test [2] is listed as 4176.74 ± 1214.41^b pg/mL.
Turning to `O=C(C=Cc1ccc(O)c(O)c1)OC1CC(O)(C(=O)O)CC(O)C1OC(=O)C=Cc1ccc(O)c(O)c1` (stereo not shown) [3,4-diCQA, 3,4-dicaffeoylquinic acid], the IC50 in test [1] was found to be 260 ± 18.4 µM. Further, the “IL-1β in cell supernatant” value in test [2] is 7088.57 ± 621.91^d pg/mL.
On to `O=C(C=Cc1ccc(O)c(O)c1)OC1CC(O)(C(=O)O)CC(OC(=O)C=Cc2ccc(O)c(O)c2)C1O` (stereo not shown) [3,5-diCQA, 3,5-dicaffeoylquinic acid], for which the IC50 in test [1] stood at 289 ± 21.8 µM. In addition, the “IL-1β in cell supernatant” value in test [2] was 8850.00 ± 190.20^e pg/mL.
Take `O=C(C=Cc1ccc(O)c(O)c1)OC1CC(O)(C(=O)O)CC(O)C1OC(=O)C=Cc1ccc(O)c(O)c1` (stereo not shown) [4,5-diCQA, 4,5-dicaffeoylquinic acid]: the IC50 in test [1] was 233 ± 10.9 µM. Also, in test [2], the “IL-1β in cell supernatant” value is 5572.09 ± 632.81^c pg/mL.
